Tests used:
[1] = test system: defatted mouse cerebral hemisphere; experiment: 3D immunostaining with combinations of additives; conditions: Immunostaining Buffer E; antibodies against synaptophysin, Gad67, Dat or Th; 32° C., 3 to 4 days
Source text: Fab-anti-mouse or rabbit IgG against each primary antibody, labeled with Alexa 594 (manufactured by Jackson ImmunoResearch laboratories; Fab-anti-mouse IgG1-[…] (#115-587-185), Fab-anti-mouse IgG2a-[…] (#115-587-186), or Fab-anti-rabbit IgG-[…] (#111-587-008), added such that the weight ratio to each primary antibody was about 1:0.75); and predetermined concentrations of additives (two or three selected from #0854, #1086, and #0609 described in FIG. 1A and #0146 described in FIG. 1B).

[2] = test system: defatted column of the cerebral cortex area of pig brain; experiment: Evaluation of antibody penetration efficiency (peak-bottom ratio), anti-synaptophysin antibody; conditions: 2.5% by weight in Immunostaining Buffer E vs distilled water, 32° C., 1 day
Description: After the defatting treatment, the sample was washed with PBS, and soaked in Immunostaining Buffer E that was mixed with a mouse monoclonal anti-synaptophysin antibody (manufactured by Medical & Biological Laboratories Co., Ltd.; #D073-3; 20 μg/mL) and Fab-anti-mouse IgG1 labeled with Alexa 594 (added such that the weight ratio to the anti-synaptophysin antibody was about 1:1) and further supplemented with 2.5% by weight Quadrol or the same amount of distilled water. The sample was stained at 32° C. for 1 day. After the staining, the sample was washed with PB-Triton and PB, and a frozen section in the central portion of the sample was prepared.
FIGS. 18A and B show images of the frozen sections of the samples stained with Immunostaining Buffer E to which distilled water or Quadrol, respectively, was added. […] For quantification, a representative area showing almost uniform staining of the left and right sides of the column was selected using a micrographic image, and a brightness-value graph was prepared. In the graph, the ratio (peak-bottom ratio) of the maximum brightness (peak) in the left and right to the minimum brightness (bottom) in the sample was high in the sample to which Quadrol was not added. […] Thus, using the peak-bottom ratio as a quantitative index of penetrability of an antibody into a tissue, a search was carried out for compounds as follows. […]

Structure (SMILES) | penetration-promoting effect for the antibodies / staining performance inside the sample [1] | penetration of the antibody [2]
CN(C)CCOCCO [#0146, 2-[2-(Dimethylamino)ethoxy]ethanol] | even stronger penetration-promoting effect | –
CC(O)CN(CCN(CC(C)O)CC(C)O)CC(C)O (centres unmarked) [Quadrol, N,N,N′,N′-tetrakis(2-hydroxypropyl)ethylenediamine] | – | penetration of the antibody was effectively increased

Reference: patent publication US20220326125A1, “BIOLOGICAL TISSUE STAINING REAGENT, BIOLOGICAL TISSUE STAINING KIT AND BIOLOGICAL TISSUE STAINING METHOD” (CUBICStars, Inc., priority 2019, published 2022)
